Here are results for ten compounds from patent US5703130A, “Chalcone retinoids and methods of use of same” (priority 1996, dated 1997).

Series [1] has as its system Human promyelocytic leukemia HL-60 cells. Put plainly: Cell differentiation of HL-60 cells by nitroblue tetrazolium (NBT) reduction. In kind it is cell-based. Conditions: 50% differentiation or effective concentration, read-out: NBT ED50. The protocol: Human promyelocytic leukemia HL-60 cells were cultured in RPMI-1640 medium supplemented by 10% heat-inactivated calf serum and 100 U/ml of penicillin plus 100 μg/ml of streptomycin. The flasks containing cells and medium were incubated in an incubator with 5% CO2 at 37° C. Log phase cells were seeded into the medium at a concentration of 1.2×10^5to 1.4×10^5 cells per ml and cultured in flasks containing 5 ml of medium. Each group consisted of three flasks. Different concentrations of chalcone-retinoids were added. At intervals following the addition of chalcone-retinoids to the cultures, a small portion of cells was removed and live cells were counted under a light microscope using a dye-exclusionmethod with trypan blue. Cell differentiation was judged in terms of morphology and nitroblue tetrazolium (NBT) reduction.
For a determination of NBT reducing activity, a portion of the chalcone-retinoid-treated cells was removed at intervals following treatment and centrifuged. After centrifugation, 0.5 ml of 0.1% NBT (containing 100 ng TPA) was added to each tube. The contents of the test tubes were then incubated for 1 hour at 37° C. Cell smears were prepared from the cell sediment and stained using the Wright-Giemsa technique. For each smear prepared, 200 cells were isolated for examination under a light microscope with an oil immersion lens. Cells stained with blue-black granules were considered NBT-positive cells. The 50% differentiation or effective concentration (ED50 or EC50) is shown in terms of molar (M) concentration of the […] tested.

The test system of another series is cancer cells. Put plainly: MTT assay for inhibitory effect on cancer cells (monolayer culture). In kind it is cell-based. Conditions: 120 h, 5 day culture, 1200 tumor cells per well, cell line not named, read-out: MTT ED50. How it is done:
For a monolayer culture to test for the inhibitory effect of chalcone retinoids on cancer cells, 0.5 ml of trypsin solution (0.3 gm/ml) was added to the flasks for digestion. Microtiter plates (96 well) were used for the cell culture and 200 μl of cell suspension (1200 tumor cells) were placed in each well and incubated at 37° C. for 24 hours. Following the addition of the test compound, the control and treated flasks were placed in a CO2 incubator for 5 day culture. For the MTT assay, 200 μl of MTT solution (5 mg in 10 ml of phosphate buffer) plus the medium were added and incubated for another 4 hours. Following incubation, the supernatant was discarded and 200 μl of DMSO was added to each well. With a mild agitation the OD values were determined by the MR 700 Elisa at 570 nm (reference wavelength was 450 nm). The ED50 of the compound and tumor cell survival rate [formula] as percent inhibition were calculated.
For orientation: Tetrazolium assays rely on reduction of a dye to a coloured formazan, in cell work by metabolically active cells.

The test system of series [2] is human acute myeloid leukemia (AML), neuroblastoma, teratocarcinoma, melanoma, and rat rhabdomyosarcoma cells. The settings on record: Smith et al., J. Clin. Oncol. 10 (5):839-864 (1992); cited from earlier work.
The conditions of series [3]: Preuss-Ueberschar et al., Drug Res. 34:1305-1313 (1984); cited from earlier work.
The test system of a further series is melanoma cell. The settings on record: Jing et al. (1992); cited from earlier work.

Each structure is given as a SMILES string.

As for `CC(C)(C)c1cc(C(=O)Nc2ccc(C(=O)Nc3ccc(O)cc3)cc2)cc(C(C)(C)C)c1O` [I-A, N-4-[4-(hydroxyphenylaminocarbonyl)phenyl]-3,5-di-t-butyl-4-hydroxybenzamide], in series [1], the EC50 was above 1 µM. For the same compound, the IC50 in the series with cancer cells was found to be 4 µM.
Taken in the same sequence, the figures for `CC(=O)Nc1ccc(OC(=O)c2ccc(NC(=O)c3cc(C(C)(C)C)c(O)c(C(C)(C)C)c3)cc2)cc1` [I-B, N-4-[4-(acetaminophenoxycarbonyl)phenyl]-3,5-di-t-butyl-4-hydroxybenzamide] were above 10 µM and 11 µM.
On the same counts, the results for `COc1c(C(C)(C)C)cc(C(=O)Nc2ccc(C(=O)Oc3ccc(NC(C)=O)cc3)cc2)cc1C(C)(C)C` [I-J, N-4-[4-(acetaminophenoxycarbonyl)phenyl]-3,5-di-t-butyl-4-methoxybenzamide] are 1.2 µM and 0.92 µM.
On to `COc1c(C(C)(C)C)cc(C(=O)C=Cc2ccc(C(=O)Oc3ccc(NC(C)=O)cc3)cc2)cc1C(C)(C)C` [I-N, 1-(3,5-di-t-butyl-4-methoxyphenyl)-3-[4-(4-acetaminophenoxycarbonyl)-phenyl]-2-propen-1-one], for which, in series [1], the EC50 was above 1 µM. Moreover, the IC50 in the series on cancer cells was 2 µM.
Taken in the same sequence, the figures for `CC(=O)Nc1ccc(OC(=O)c2ccc(OC(=O)c3cc(C(C)(C)C)c(O)c(C(C)(C)C)c3)cc2)cc1` [I-Q, 4'-[(4-acetamino)phenoxycarbonylphenyl] 4-hydroxy-3,5-di-t-butyl-benzoate] were 8 µM and 6 µM.
Taken in the same sequence, the figures for `CCOC(=O)c1ccc(NC(=O)c2ccc(OC(=O)c3cc(C(C)(C)C)c(O)c(C(C)(C)C)c3)cc2)cc1` [I-R, 4-(4-ethoxycarbonyl-phenylaminocarbonyl)phenyl 3,5-di-t-butyl-4-hydroxybenzoate] were above 10 µM and above 10 µM.
As for `CC(C)(C)c1cc(C(=O)Oc2ccc(C(=O)Nc3ccc(C(=O)O)cc3)cc2)cc(C(C)(C)C)c1O` [I-S, 4-(4-carboxy-phenylaminocarbonyl)phenyl 3,5-di-t-butyl-4-hydroxybenzoate], the EC50 in series [1] is above 10 µM. Also, the IC50 with cancer cells turned out to be 1.6 µM.
On to `CC1=C(/C=C/C(C)=C/C=C/C(C)=C/C(=O)O)C(C)(C)CCC1` [all-trans-retinoic acid (RA), all-trans-retinoic acid], for which the induces cell differentiation result in series [2] was “induces cell differentiation”.
Turning to `O=c1ccc2ccccc2o1` [coumarin], the teratogenicity result in series [3] is on record as “not teratogenic”.
Turning to `O=c1c(-c2ccc(O)cc2)coc2cc(O)ccc12` [diadzein], in the series on melanoma cell, the “inhibition of melanoma cell growth” value is given as “inhibits melanoma cell growth”.
